According to US11186614B2, “Anti-HIV peptides” (priority 2016, dated 2021):
“Also recorded” adds a separate entry of the source.

Key:
HIV TAR = assay: ELISA RNA binding of SUMO fusion proteins, HIV TAR; parameters: species or system HIV-1
From the text: (§1) FIG. 6A-B depicts SUMO-(GGS)3-β2-β3 and graphs of ELISA data. (A) Diagram of the SUMO-(GGS)3-β2-β3 hairpin loop of TBP6.7 fused to SUMO.
(§2) Protein engineering was used to test whether an isolated β2-β3 hairpin of TBP6.7 (FIG. 2) retains TAR binding. Specifically, a fusion protein was created comprising the TBP6.7 β2-β3 hairpin (FIG. 6A) linked by flexible, soluble spacer (GGS)3 to SUMO (Small Ubiquitin-like Modifier), a 12 kDa protein that expresses well in E. coli and stabilizes a variety of structurally diverse fusion proteins.^114 The affinity for TAR was then measured by ELISA (FIG. 6B).
(§3) To test for TAR binding by the isolated β2-β3 loop sequence, we first fused this short peptide to SUMO (Small Ubiquitin-like Modifier). […] Arg-to-Ala mutants were then tested.
(§4) SUMO is 12 kDa protein that expresses well in E. coli and stabilizes a variety of diverse fusion proteins. A β2-β3 loop peptide comprising the sequence L^41-to-F^59—or mutants thereof—was fused to a flexible GGS linker at the SUMO C-terminus, and RNA binding was measured by ELISA. […] Stapling was accomplished by inserting nucleophiles using L44C and F56C mutations. Following treatment with a reducing agent (DTT), chemical cyclization was achieved by SNAr conjugation using polyfluorinated biarylsulfoxide; β2-β3 loop peptides with R-to-A mutations were prepared similarly. […]

BIV TAR = assay: ELISA RNA binding of SUMO fusion proteins, BIV TAR; parameters: species or system Bovine immunodeficiency virus
From the text: as §1, §2, §3, §4

U1hpII [1] = assay: SPR binding to U1hpII; details: FIG. 4D
From the text: FIG. 4A-F depict the TBP evolution screen.

TAR = details: FIG. 4D
From the text: (A) Yeast display platform to identify U1A-derived proteins that bind TAR. […] (C) ELISA data depicting binding between evolved proteins and TAR. […] (E) Sequences of TAR mutants used to elucidate TBP6.6 and TBP 6.7 binding selectivity. (F) ELISA data showing relative affinities between TBP6.6 or TBP6.7.

U1hpII [2] = assay: ELISA RNA binding of SUMO fusion proteins, U1hpII
From the text: as §1, §2, §3, §4

Question: What does the source list for “U1A: parental RRM protein, starting protein whose native target is U1hpII”?
Answer: ELISA binding to HIV TAR (HIV TAR): did not interact with BIV or HIV TAR; ELISA binding to BIV TAR (BIV TAR): did not interact with BIV or HIV TAR; SPR recognition of U1hpII (U1hpII [1]): tightly binds U1hpII; SPR recognition of TAR (TAR): does not bind TAR; ELISA binding to U1hpII (U1hpII [2]): highest relative level of binding; also recorded: binds U1hpII

B1: SUMO: Small Ubiquitin-like Modifier, a 12 kDa protein, fusion partner control (protein, UniProt Q12306 2-98, looked up)
Ubiquitin-like protein SMT3: SDSEVNQEAKPEVKPEVKPETHINLKVSDGSSEIFFKIKKTTPLRRLMEAFAKRQGKEMDSLRFLYDGIRIQADQTPEDLDMEDNDIIEAHREQIGG
Question: Which “ELISA binding to HIV TAR” value (HIV TAR) does the source give for B1 here?
Answer: does not have appreciable TAR binding; also recorded: no appreciable RNA binding; also recorded: does not bind

Question: And the “ELISA binding to BIV TAR” value (BIV TAR)?
Answer: no appreciable RNA binding; also recorded: does not bind

Question: What about the “ELISA binding to U1hpII” value (U1hpII [2]) of the same molecule?
Answer: no appreciable RNA binding; also recorded: does not bind
